Values of other authors, collected in patent publication US20240408209A1, “Peptide-Protected Gold Nanocluster and Use in Photodynamic Therapy” (Queen's University at Kingston, priority 2023, published 2024).

Details: positive control

## CN(C)c1ccc2nc3ccc(=[N+](C)C)cc-3sc2c1 [Methylene blue]
  QY of photochemical generation of 1O2: 0.52
